These results are taken from patent publication US20220347085A1, “REPELLENT COMPOSITION AND USES” (Université Bourgogne, priority 2019, published 2022).

Type in all cases: in vivo
Data set [1] deals with Drosophila melanogaster. Kind of data set: Courtship of male Drosophila melanogaster towards females, olfactory exposure. Here is the method:
1.1. Drosophila melanogaster
Drosophilae (Drosophila melanogaster) aged from 3 to 9 days are used for the courtship tests as described Grosjean et al. Nat. Neurosci. 2008 [1] and Grosjean et al. Nature 2011 [2].
Naive males were isolated in tubes, individually, upon emerging from their puparium. The females were selected to be virgin and were stored in tubes of 10 individuals. These tubes were placed in incubators, for which a temperature of 25° C. was kept constant. A 12 hour/12 hour day/night cycle was applied. The courtship tests were carried out in the morning, between 1 and 3 hours after the start of the day cycle.
These tests were conducted in devices made up of 6 cylindrical, transparent, and closed alveolae (see FIG. 15) of a volume of […]. A disk of filter paper (Whatman, filter paper 42) of 6 mm in diameter is deposited on the base thereof. Said paper is soaked in 10 μl of a composition comprising propionic acid and/or butyric acid diluted in paraffin oil (solvent). The different compositions used comprised, respectively, 0.5% or 1% propionic acid, 0.5% or 1% butyric acid. For each concentration, the number of pairs of flies tested was, respectively, 23, 23, 19 and 19. At the time of the test, 1 pair per alveolus was introduced into the behavior device (i.e. 6 pairs). Said pair was made up of one male and one female, each originating from the tubes mentioned above. The drosophilae were physically isolated from the odor source (said paper) by a netting which prevents any direct contact, the female had been decapitated but remained alive. In addition, the device was illuminated by red light (red far from the wavelength of between 625 and 630 nm) so as to eliminate any behavior associated with the visual perception which, in D. melanogaster, is between 300 and 550 nm)). Thus, the behavior observed depends only on the olfactory perception by the male of the compound introduced into the device at the time of the assembly thereof.
The behavior was filmed for 10 minutes, using a Sony HDR-XR550 camera. Each film was recorded and kept for subsequent analysis.
A proportion of courtship, expressed as a percentage, was then calculated, and represents the time during which the male courts the female during the 10 minutes of recording the test. The courtship of the Drosophila melanogaster is decomposed into recognizable stereotypical events, and described precisely in scientific literature (Greenspan & Ferveur, Annu. Rev. Genet, 2000 [3]). A statistical test (Mann-Whitney test (nonparametric test, GraphPad, Prism8)) was carried out in order to evaluate the influence, on the behavior, of the composition in which the paper is soaked; this involving a release of volatile compounds and an odor perceived by the drosophilae. […]

Data set [2] has as its system Drosophila suzukii. Kind of data set: Evaluation of the copulation of Drosophila suzukii. The settings on record: 10 min observation. Here is the method:
2. Evaluation of the Copulation From the films recorded for studying the courtship behavior of Drosophila suzukii, a percentage of the number of pairs copulating during the 10 minutes of observation was calculated on the basis of the composition in which the filter paper was soaked. A statistical evaluation was carried out, and different tests were performed. In particular, a Kruskal-Wallis test followed by a post-hoc Dunn's Multiple Comparison Test were carried out (GraphPad, Prism6) in order to quantify the influence, on the number of copulating individuals, of the composition in which the paper is soaked and which involves a release of volatile compounds and an odor perceived.

The subject of data set [3] is Drosophila suzukii. In words: Test in a box (repellent effect), Drosophila suzukii. The settings on record: 2% in solvent, 1250 cm^3 box. Here is the method:
2. Tests “in a Box” (Repellent Effect)
The sensitivity of the drosophilae was evaluated over a period of between 0 minutes and 24 hours, according to the conditions (see results) in closed and transparent boxes of 1250 cm^3.
An odor source, i.e. a composition comprising butyric acid or propionic acid in paraffin oil, was deposited on a filter paper at the base of a 50 mm petri dish. The petri dish is introduced into a test box and covered with a gauze Securimed M8202 sterile gauze pad) in order to prevent the flies from getting stuck on the oily odorous compound.
The concentrations used were 2%, 6% or 20% propionic acid.
A second Petri dish containing 5 to 6 grams of synthetic food used for breeding drosophilae in laboratories was placed in the test box, i.e. 6.5% maize flour, 6.5% (v/v) yeast extract, 1% (v/v) agar-agar, and 3% (v/v) of a 0.1% (v/v) antifungal solution (Tegosept (Apex)) in ethanol at 95%. This latter provides the water and/or the food which the flies needed during the test, and eliminated the possibility of an event due to dehydration of the individuals tested.
Drosophila melanogaster or suzukii were then introduced by groups into the test box, and moved there freely over time. Their behavior in the presence of a composition as mentioned above was observed and photographed (Apple iPhone 6S).

Data set [4] concerns Drosophila melanogaster. In words: Anesthesia test, Drosophila melanogaster. The settings on record: 2% in paraffin oil. Here is the method:
The devices used were similar to the devices for studying the courtship (example 1 above), except for the volume of the space into which the files were introduced, which was 45.24 or 22.62 cm^3. 9 discs of filter paper (Whatman, filter paper 42), each soaked in 10 μl of a composition comprising butyric acid and/or propionic acid and/or a derivative of propionic acid diluted in paraffin oil were deposited in the device. The different compositions used comprised, respectively, 2% propionic acid or 2% butyric acid or 5% ethyl propanoate or 10% ethyl propanoate or 30% ethyl propanoate. For each composition, the number of flies was, respectively, 30 and 24 males, 30 and 11 females for Drosophila melanogaster, and 24, 16 and 4 males, 28, 26, 6, 5 and 4 females for Drosophila suzukii. In order to avoid any contact of the flies with the soaked disks of paper, a gauze (netting) was arranged above said papers. The drosophilae could move freely on said gauze. The quantity of compound, butyric acid or propionic acid, or of ethyl propanoate (odor) volatilized in the behavior chamber was equivalent to that of the device used for the courtship. Likewise, the flies were never in direct contact with the composition (no taste perception), only with the volatile particles (olfactory perception). The flies tested were introduced simultaneously, by group, into the enclosure. Their behavior was filed for 10 minutes, and a time required for leading to anesthesia was calculated over this period, depending on the concentration of butyric acid or propionic acid or ethyl propanoate used. The flies were considered anesthetized when they stopped moving and fell on their side.

Where [5] appears, read: 1% in paraffin oil, compared with solvent alone, red light, decapitated female.

Take `CCCC(=O)O` [butyric acid]: the “proportion of courtship of males towards females” value in data set [1] (0.5% in paraffin oil, compared with solvent alone) is on record as “significantly reduced”; in data set [1] (setting [5]), “significantly reduced”. The “reduction of the proportion of copulation” value in data set [2] (0.1% in solvent) stood at 70.55%; in data set [2] (0.5% in solvent) it was 83.03%. For the same compound, the proportion of copulation in data set [2] (0.5% in solvent) was 3.03%; in data set [2] (1% in solvent), “zero”. Besides, the “repellent behavior (location of flies relative to odor source)” value in data set [3] is “remained away from the filter soaked in butyric acid”. Moreover, the “anesthesia at a distance in the box” value in data set [3] (males and females) is listed as “anesthetized”. In data set [3] (males and females), the “time until death in the box” value is 20 h. In addition, the entries for the “time elapsed leading to anesthesia” value in data set [4] (female flies) and in data set [4] (male flies) were “approximately 17 minutes” and “approximately 5 minutes”, respectively.
As to `CCC(=O)O` [propionic acid], the “proportion of courtship of males towards females” value is “significantly changed” in data set [1] (setting [5]) and “significantly reduced” in data set [1] (1% in solvent, compared with 0.5% in solvent). For the same compound, the “reduction of the proportion of copulation” value in data set [2] (0.1% in solvent) was found to be 58%. Moreover, the proportion of copulation result in data set [2] (0.5% in solvent) and in data set [2] (1% in solvent) was “zero” each time. Moreover, the “repellent behavior (location of flies relative to odor source)” value in data set [3] is reported as “remained preferably away from said odor”. The “anesthesia at a distance in the box” value in data set [3] (males and females) was “anesthetized in the hour which followed”. For the same compound, the “time elapsed leading to anesthesia” value in data set [4] (female flies) was “approximately 5 minutes”; in data set [4] (male flies) it was “approximately 3 minutes”.
